From ChEMBL document CHEMBL3785091, “Discovery of AZD8165 a clinical candidate from a novel series of neutral thrombin inhibitors” (Medchemcomm, 2016) come the findings set out here.

The nature of data set [1]: Bioavailability in Sprague-Dawley rat. It counts as ADME, organism-based. The settings on record: in vivo.
Data set [2] in a line: Kinetic solubility of compound in HBSS-MES buffer at 5 to 10 mM at pH 6.8 by LC-UV/MS analysis. It counts as physicochemical. The settings on record: read-out: Kinetic_solubility.
The test system of data set [3] is Homo sapiens. In words: Oral bioavailability in human. It counts as ADME, organism-based. Particulars: in vivo.
For data set [4], the species on record is Cavia porcellus. In words: Cardiotoxicity in guinea pig by cardiac electrophysiology assay relative to control. It counts as toxicity, organism-based, Heart. Particulars: in vivo.
The species entered for data set [5] is Rattus norvegicus. Nature of the data set: Cardiotoxicity in rat by electrophysiology assay relative to control. Type of data set: toxicity, organism-based. Particulars: in vivo.
Data set [6] is filed under the species Rattus norvegicus. In words: Toxicity in rat arterial thrombosis model assessed as increase in bleeding time. Type of data set: organism-based. The settings on record: in vivo.
For data set [7], the species on record is Rattus norvegicus. Nature of the data set: Toxicity in rat by irwin assay relative to control. It counts as organism-based. The settings on record: in vivo.
The species entered for data set [8] is Mus musculus. Nature of the data set: Cardiotoxicity in mouse by electrophysiology assay relative to control. It counts as toxicity, organism-based. The settings on record: in vivo.
Data set [9] has as its system Rattus norvegicus. Nature of the data set: Bioavailability in rat dosed via colon route assessed as (5S)-N-[5-Chloro-2-(1H-tetrazol-1-yl)benzyl]-1-[(2R)-2-(4-fluorophenyl)-2-hydroxyacetyl]-4,5-dihydro-1H-pyrazole-5-carboxamide level. Type of data set: ADME, organism-based. Particulars: in vivo, other.
Data set [10] is described as follows: Drug excretion in human urine. Type of data set: ADME, tissue-based.
Data set [11] concerns Homo sapiens. Nature of the data set: Toxicity in po dosed human. It counts as organism-based. Particulars: in vivo.
The nature of data set [12]: Drug excretion in dog urine assessed as compound unchanged. Type of data set: ADME, tissue-based, Canis lupus familiaris. Particulars: read-out: Drug excretion.
A short description of data set [13]: Drug metabolism in rat urine. Type of data set: ADME, tissue-based.
The subject of data set [14] is Rattus norvegicus. Nature of the data set: Oral bioavailability in rat assessed as (5S)-N-[5-Chloro-2-(1H-tetrazol-1-yl)benzyl]-1-[(2R)-2-(4-fluorophenyl)-2-hydroxyacetyl]-4,5-dihydro-1H-pyrazole-5-carboxamide level. Type of data set: ADME, organism-based. The settings on record: in vivo.
The nature of data set [15]: Drug excretion in rat bile assessed as (5S)-N-[5-Chloro-2-(1H-tetrazol-1-yl)benzyl]-1-[(2R)-2-(4-fluorophenyl)-2-hydroxyacetyl]-4,5-dihydro-1H-pyrazole-5-carboxamide level. The settings on record: in vivo. It counts as ADME, tissue-based.
A short description of data set [16]: Drug excretion in rat urine assessed as compound unchanged. It counts as ADME, tissue-based. Particulars: read-out: Drug excretion.
Data set [17] deals with Canis familiaris. Nature of the data set: Oral bioavailability in dog assessed as (5S)-N-[5-Chloro-2-(1H-tetrazol-1-yl)benzyl]-1-[(2R)-2-(4-fluorophenyl)-2-hydroxyacetyl]-4,5-dihydro-1H-pyrazole-5-carboxamide level. Type of data set: ADME, organism-based, Canis lupus familiaris. The settings on record: in vivo.
Data set [18] can be described thus: Drug excretion in dog bile assessed as (5S)-N-[5-Chloro-2-(1H-tetrazol-1-yl)benzyl]-1-[(2R)-2-(4-fluorophenyl)-2-hydroxyacetyl]-4,5-dihydro-1H-pyrazole-5-carboxamide level. It counts as ADME, tissue-based, Canis lupus familiaris. Particulars: in vivo.
A short description of data set [19]: Drug metabolism in dog urine. Type of data set: ADME, tissue-based, Canis lupus familiaris.

Values after ≈ are worked out from the molar mass of the structure shown.

The bioavailability is the share of a dose that reaches the circulation, judged against a reference dose that is usually intravenous. Higher therefore signals much systemic uptake.

In the case of `CCCC[C@@H](O)C(=O)N1N=CC[C@H]1C(=O)NCc1cc(Cl)ccc1-n1cnnn1`, the bioavailability in data set [1] was 70%. Besides, the solubility kinetic in data set [2] was determined as 59 µM (≈ 24.8 µg/mL).

In turn, `O=C(NCc1cc(Cl)ccc1-n1cnnn1)[C@@H]1C[C@H]2C[C@H]2N1C(=O)[C@H](O)c1ccccc1` had a bioavailability in data set [1] of 86%. In [2], the solubility kinetic was 100 µM (≈ 45.3 µg/mL).

As to `CCCC(=O)O[C@@H](C(=O)N1N=CC[C@H]1C(=O)NCc1cc(Cl)ccc1-n1cnnn1)c1ccc(F)cc1`, the solubility kinetic in data set [2] is less than 1 µM.

`CC(C)(C)[C@@H](O)C(=O)N1C[C@@H]2C[C@@H]2[C@H]1C(=O)NCc1cc(Cl)ccc1-n1cnnn1` registered a bioavailability in data set [1] of 57%. Further, the solubility kinetic in data set [2] was determined as 97 µM (≈ 42 µg/mL).

Turning to `CCCCC(=O)O[C@@H](C(=O)N1N=CC[C@H]1C(=O)NCc1cc(Cl)ccc1-n1cnnn1)c1ccc(F)cc1`, in data set [2], the solubility kinetic stood at 20.5 µM (≈ 11.1 µg/mL).

Regarding `O=C(NCc1cc(Cl)ccc1-n1cnnn1)[C@@H]1C[C@@H]2C[C@@H]2N1C(=O)[C@H](O)c1ccccc1`, in data set [1], the bioavailability stood at 63%. The solubility kinetic in [2] came to 97 µM (≈ 43.9 µg/mL).

`O=C(NCc1cc(Cl)ccc1-n1cnnn1)[C@@H]1CC=NN1C(=O)[C@H](O)c1ccccc1` came in with a bioavailability in data set [1] of 60%. In addition, the solubility kinetic in [2] worked out at 98 µM (≈ 43.1 µg/mL).

For `CCOC(=O)CN[C@@H](C(=O)N1CC[C@H]1C(=O)NCc1ccc(/C(N)=N\O)cc1)C1CCCCC1` [XIMELAGATRAN], the F in [3] came to 20%.

Turning to `O=C(NCc1cc(Cl)ccc1-n1cnnn1)[C@@H]1CC=NN1C(=O)[C@H](O)c1ccc(F)cc1`, the “fold change (FC)” value in data set [4] is reported as more than 40; in data set [5], more than 40; in data set [6] it was 2; in data set [7] it was more than 24; in data set [8], more than 40. Besides, in data set [1], the bioavailability is 75%. Further, the solubility kinetic in data set [2] is 95 µM (≈ 43.5 µg/mL).

Regarding `CCC(=O)O[C@@H](C(=O)N1N=CC[C@H]1C(=O)NCc1cc(Cl)ccc1-n1cnnn1)c1ccc(F)cc1` [AZD-8165], the F in [9] was 30%; in [14], 64%; in data set [17], 52%. For the same molecule, the Drug excretion result in [10], in [15] and in data set [18] was “metabolite_notdetected” throughout. The molecule further gave an MTD in [11] of 2.5 mg. Further, the “fold change (FC)” value in data set [4] is recorded as more than 40; in data set [5], more than 40; in data set [7] it was more than 24; in [8] it was more than 40. Also, the solubility kinetic in [2] came out at 2.5 µM (≈ 1.28 µg/mL). For the same molecule, the dose excreted in [12] turned out to be 18%; in data set [16] it was 66%. Moreover, the Drug metabolism entry in data set [13] and in [19] was “metabolite_detected” throughout.

As for `CC(=O)O[C@@H](C(=O)N1N=CC[C@H]1C(=O)NCc1cc(Cl)ccc1-n1cnnn1)c1ccc(F)cc1`, the solubility kinetic in data set [2] was 87.5 µM (≈ 43.7 µg/mL).
